Experimental data: publication PMC8667885, “2-Aminobenzoxazole-appended coumarins as potent and selective inhibitors of tumour-associated carbonic anhydrases” (Journal of Enzyme Inhibition and Medicinal Chemistry, 2021)
Read-outs that look alike come from different tables or passages of the source.

How the values were obtained:
[1] = test system: A549 (non-small cell lung); assay: antiproliferative assay (NCI protocol), A549; type: cell-based, human; conditions: antiproliferative activity
Experimental: (§1) The antiproliferative assays were conducted following the protocol of the US National Cancer Institute (NCI), with minor modifications.
(§2) The coumarin-benzoxazole hybrids were also tested as antiproliferative agents against a panel of six human solid tumour cell lines (Table 2): A549 (non-small cell lung), HBL-100 (breast), HeLa (cervix), SW1573 (non-small cell lung) as examples of drug-sensitive lines, and T-47D (breast) and WiDr (colon) as multidrug-resistant lines. A non-tumour cell line (BJ-hTert, human fibroblasts) was also used for analysing the selectivity. Chemotherapeutic agents 5-fluorouracyl (5-FU) and cisplatin (CDDP) were included in the study as drug references.

HBL-100 (breast) = assay: antiproliferative assay (NCI protocol), HBL-100; type: cell-based, human; conditions: antiproliferative activity
Experimental: as §1, §2

HeLa (cervix) = assay: antiproliferative assay (NCI protocol), HeLa; type: cell-based, human; conditions: antiproliferative activity
Experimental: as §1, §2

[2] = test system: SW1573 (non-small cell lung); assay: antiproliferative assay (NCI protocol), SW1573; type: cell-based, human; conditions: antiproliferative activity
Experimental: as §1, §2

T-47D (breast) = assay: antiproliferative assay (NCI protocol), T-47D; type: cell-based, human; conditions: antiproliferative activity, multidrug-resistant line
Experimental: as §1, §2

WiDr (colon) = assay: antiproliferative assay (NCI protocol), WiDr; type: cell-based, human; conditions: antiproliferative activity, multidrug-resistant line
Experimental: as §1, §2

[3] = test system: BJ-hTert, human fibroblasts; assay: antiproliferative assay (NCI protocol), non-tumour BJ-hTert; type: cell-based; conditions: for GI50: non-tumour cell line, human fibroblasts; for activity against the non-tumour cell line (in words): BJ-hTert
Experimental: as §1, §2

[4] = test system: panel of six human solid tumour cell lines; assay: antiproliferative assay, whole panel of tumour cell lines; type: cell-based
Experimental: as §1, §2

human CA I [5] = target: T1, human CA I (Homo sapiens, UniProt P00915); assay: stopped-flow CO2 hydrase assay, CA I
T1 sequence (P00915 whole entry): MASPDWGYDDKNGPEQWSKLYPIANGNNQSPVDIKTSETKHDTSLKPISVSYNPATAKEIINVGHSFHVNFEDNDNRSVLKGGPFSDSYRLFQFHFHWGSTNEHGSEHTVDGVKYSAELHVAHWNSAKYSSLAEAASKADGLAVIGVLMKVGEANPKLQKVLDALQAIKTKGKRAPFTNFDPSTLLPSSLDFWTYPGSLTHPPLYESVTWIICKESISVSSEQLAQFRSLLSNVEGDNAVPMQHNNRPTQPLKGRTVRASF
Description: (§3) A stopped-flow CO2 hydrase assay has been employed as reported earlier[10–12].

human CA II [6] = target: T2, human CA II (Homo sapiens, UniProt P00918); assay: stopped-flow CO2 hydrase assay, CA II
Description: as §3

human CA IV = human CA IV (Homo sapiens, UniProt P22748); assay: stopped-flow CO2 hydrase assay, CA IV
Sequence of human CA IV (P22748 19-312): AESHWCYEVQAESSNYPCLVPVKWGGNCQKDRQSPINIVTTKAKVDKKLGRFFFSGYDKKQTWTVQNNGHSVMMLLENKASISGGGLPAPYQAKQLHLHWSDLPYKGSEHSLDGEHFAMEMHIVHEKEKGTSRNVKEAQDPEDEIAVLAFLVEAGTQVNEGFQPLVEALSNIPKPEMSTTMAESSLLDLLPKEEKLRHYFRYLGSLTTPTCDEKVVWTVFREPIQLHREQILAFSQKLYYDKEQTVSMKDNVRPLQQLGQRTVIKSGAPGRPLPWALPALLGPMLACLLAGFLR
Description: as §3

human CA IX = human CA IX (Homo sapiens, UniProt Q16790); assay: stopped-flow CO2 hydrase assay, CA IX; conditions: for Selectivity ratio I/IX: ratio of Ki CA I / CA IX; for Selectivity ratio II/IX: ratio of Ki CA II / CA IX; for decreased activity against CA IX compared to non-substituted counterpart 8b: versus 8b
Description: as §3

human CA VII = human CA VII (Homo sapiens, UniProt P43166); assay: stopped-flow CO2 hydrase assay, CA VII
Sequence of human CA VII (P43166 whole entry): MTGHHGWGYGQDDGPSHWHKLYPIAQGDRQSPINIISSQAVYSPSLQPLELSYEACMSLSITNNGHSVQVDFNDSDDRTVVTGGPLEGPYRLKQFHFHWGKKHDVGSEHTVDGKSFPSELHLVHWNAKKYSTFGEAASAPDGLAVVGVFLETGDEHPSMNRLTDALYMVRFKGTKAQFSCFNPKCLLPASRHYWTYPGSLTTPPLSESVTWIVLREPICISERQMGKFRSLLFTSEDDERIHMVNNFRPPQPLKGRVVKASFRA
Description: as §3

human CA XII = human CA XII (Homo sapiens, UniProt O43570); assay: stopped-flow CO2 hydrase assay, CA XII; conditions: for Selectivity ratio I/XII: ratio of Ki CA I / CA XII; for Selectivity ratio II/XII: ratio of Ki CA II / CA XII
Sequence of human CA XII (O43570 25-354): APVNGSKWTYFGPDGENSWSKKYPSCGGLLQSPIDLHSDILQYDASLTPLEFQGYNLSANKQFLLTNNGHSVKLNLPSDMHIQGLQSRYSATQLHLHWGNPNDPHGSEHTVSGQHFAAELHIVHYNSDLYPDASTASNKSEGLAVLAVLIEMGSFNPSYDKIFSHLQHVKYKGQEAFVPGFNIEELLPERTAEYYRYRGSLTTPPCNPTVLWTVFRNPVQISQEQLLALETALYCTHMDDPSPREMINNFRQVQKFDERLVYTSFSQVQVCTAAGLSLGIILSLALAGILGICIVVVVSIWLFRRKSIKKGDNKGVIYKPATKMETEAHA
Description: as §3

human CA I [7] = target: T1, human CA I; set-up: made in house; method as in PMID 22077347; conditions: read-out: inhibition of hCAI; cited from earlier work
human CA II [8] = target: T2, human CA II; set-up: made in house; method as in PMID 22077347; conditions: read-out: inhibition of hCAII; cited from earlier work

Ki (human CA I [5]) [µM] | Ki (human CA II [6]) [µM] | Ki (human CA IV) [µM] | Ki (human CA IX) [µM] | Selectivity ratio I/IX (human CA IX) | Selectivity ratio II/IX (human CA IX) | Ki (human CA VII) [µM] | Ki (human CA XII) [µM] | Selectivity ratio I/XII (human CA XII) | Selectivity ratio II/XII (human CA XII) | SMILES | GI50 ([1]; Homo sapiens, A549) [µM] | GI50 (HBL-100 (breast); Homo sapiens, HBL-100) [µM] | GI50 (HeLa (cervix); Homo sapiens, HeLa) [µM] | GI50 ([2]; Homo sapiens, SW1573) [µM] | GI50 (T-47D (breast); Homo sapiens, T47D) [µM] | GI50 (WiDr (colon); Homo sapiens, WiDr) [µM] | GI50 ([3]; Fibroblast) [µM] | other results
> 10 | > 10 | 0.82 | 0.0743 | >134.6 | >134.6 | > 10 | 0.0757 | >132.1 | >132.1 | Cc1c(Cl)c(=O)oc2cc(OCCCCCCNc3nc4ccccc4o3)ccc12 [Compound 8e] | 2.6 ± 0.5 | 5.1 ± 1.4 | 3.9 ± 0.7 | 3.1 ± 0.5 | 4.3 ± 0.1 | 4.2 ± 0.5 | > 100 | GI50 ([4]; Homo sapiens, range over the tumour cell lines, read-out: GI50 for all cell lines): 2.6 to 5.1 µM; increased activity compared to 5-FU ([4]; multidrug-resistant cell lines): up to 11.7 fold; increased activity compared to CDDP ([4]; multidrug-resistant cell lines): up to 6.2 fold
> 10 | > 10 | 6.27 | 0.0332 | >301.2 | >301.2 | > 10 | 0.0571 | >175.1 | >175.1 | Cc1cc(=O)oc2cc(OCCCCCNc3nc4cc(-c5ccccc5)ccc4o3)ccc12 [Compound 8i] | 41 ± 20 | 30 ± 9 | 28 ± 13 | 60 ± 4 | > 100 | 78 ± 38 | 25 ± 6 | activity against the non-tumour cell line (in words) [3]: moderate antiproliferative agent
> 10 | > 10 | 0.808 | 0.271 | >36.9 | >36.9 | > 10 | 0.316 | >31.6 | >31.6 | O=c1cc(-c2ccccc2)c2ccc(OCCCCCCNc3nc4ccccc4o3)cc2o1 [Compound 8f] | > 100 | > 100 | > 100 | > 100 | > 100 | > 100 | > 100 | antiproliferative activity against all cell lines (in words) [4]: completely abolished activity against all cell lines; impairment of inhibition of CA IX compared to Me-counterpart 8c (human CA IX; versus 8c): 3 fold; impairment of inhibition of CA XII compared to Me-counterpart 8c (human CA XII; versus 8c): 5 fold
– | – | – | – | – | – | – | – | – | – | O=c1[nH]cc(F)c(=O)[nH]1 [5-Fluorouracil, reference compound] | 2.2 ± 0.3 | 4.4 ± 0.7 | 16 ± 5 | 3.3 ± 1.2 | 43 ± 16 | 49 ± 7 | 5.5 ± 0.5 | –
0.806 | 0.516 | 3.47 | 0.0907 | 8.9 | 5.7 | 0.381 | 0.0506 | 15.9 | 10.2 | Cc1cc(=O)oc2cc(OCCCCCNc3nc4cc(S(N)(=O)=O)ccc4o3)ccc12 [Compound 8j] | 13 ± 3 | 27 ± 8 | 21 ± 7 | 29 ± 8 | 34 ± 8 | 29 ± 9 | > 100 | –
– | – | – | – | – | – | – | – | – | – | Cc1cc(=O)oc2cc(O)ccc12 [Compound 3a, 4-methylumbelliferone] | – | – | – | – | – | – | – | Ki (human CA I [7]): > 100 µM; Ki (human CA II [8]): > 100 µM
– | – | – | – | – | – | – | – | – | – | [NH2][Pt]([NH2])([Cl])[Cl] [CDDP, cisplatin, reference compound] | – | – | – | – | – | – | – | GI50 [1]: 4.9 ± 0.2 µM; GI50 (HBL-100 (breast)): 1.9 ± 0.2 µM; GI50 (HeLa (cervix)): 1.8 ± 0.5 µM; GI50 [2]: 2.7 ± 0.4 µM; GI50 (T-47D (breast)): 17 ± 3 µM; GI50 (WiDr (colon)): 26 ± 4 µM; GI50 [3]: 14 ± 2 µM
> 10 | > 10 | 0.762 | 0.417 | >24.0 | >24.0 | > 10 | 0.0673 | >148.6 | >148.6 | Cc1ccc2oc(NCCCCCOc3ccc4c(C)cc(=O)oc4c3)nc2c1 [Compound 8g] | > 100 | > 100 | > 100 | > 100 | > 100 | > 100 | > 100 | antiproliferative activity against all cell lines (in words) [4]: completely abolished activity against all cell lines; decreased activity against CA IX compared to non-substituted counterpart 8b (human CA IX): 6 fold
> 10 | > 10 | 0.802 | 0.0645 | >155.0 | >155.0 | > 10 | 0.0698 | >143.3 | >143.3 | Cc1c(C)c2ccc(OCCCCCCNc3nc4ccccc4o3)cc2oc1=O [Compound 8d] | 15 ± 3 | 53 ± 14 | 29 ± 8 | 20 ± 3 | > 100 | > 100 | > 50 | activity against the non-tumour cell line (in words) [3]: weak activity
> 10 | > 10 | 0.95 | 0.0707 | >141.4 | >141.4 | > 10 | 0.0845 | >118.3 | >118.3 | Cc1cc(=O)oc2cc(OCCCCCNc3nc4ccccc4o3)ccc12 [Compound 8b] | 15 ± 6 | 49 ± 6 | 39 ± 1 | 33 ± 4 | 38 ± 10 | 33 ± 1 | > 100 | –
> 10 | > 10 | 0.984 | 0.0823 | >121.5 | >121.5 | > 10 | 0.0651 | >153.6 | >153.6 | Cc1cc(=O)oc2cc(OCCCCCCNc3nc4ccccc4o3)ccc12 [Compound 8c] | 8.3 ± 1.6 | > 100 | 96 ± 7 | > 100 | > 100 | > 100 | > 100 | –
> 10 | > 10 | 0.792 | 0.757 | >13.2 | >13.2 | > 10 | 0.0807 | >123.9 | >123.9 | Cc1cc(=O)oc2cc(OCCCCCNc3nc4cc(Br)ccc4o3)ccc12 [Compound 8h] | 6.5 ± 3.1 | 23 ± 5 | 16 ± 1 | 14 ± 1 | 32 ± 7 | 29 ± 1 | > 100 | decreased activity against CA IX compared to non-substituted counterpart 8b (human CA IX): 11 fold
> 10 | > 10 | 0.839 | 0.0742 | >134.8 | >134.8 | > 10 | 0.0844 | >118.5 | >118.5 | Cc1cc(=O)oc2cc(OCCCNc3nc4ccccc4o3)ccc12 [Compound 8a] | 32 ± 1 | 41 ± 5 | 30 ± 2 | 29 ± 4 | 33 ± 3 | 37 ± 4 | > 50 | activity against the non-tumour cell line (in words) [3]: weak activity
